In PubChem BioAssay AID248 (DTP/NCI, 2004):
“And” between values parts separate entries of the source, which are not always exact repeats. Identical values can stand only once. Inconclusive results and toxic doses are left out.

Test system: L1210 leukemia ip in BDF1 mice, survival T/C
Test: NCI In Vivo Anticancer Drug Screen. Data for tumor model L1210 Leukemia (intraperitoneal) in B6D2F1 (BDF1) mice
Conditions: endpoint: mean survival time, higher = longer survival
In short: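 Antitumor effect is assessed in tumor-bearing animals. Survival in the compound arm is compared with a vehicle-dosed control arm and expressed as their quotient.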

[1] = dose: 100.0 mg/kg/injection, schedule: Q01DX001 (ip), vehicle: saline
[2] = dose: 100.0 mg/kg/injection, schedule: Q04DX003 (ip), vehicle: Klucel (hydroxypropylcellulose) (HPC)
[3] = dose: 200.0 mg/kg/injection, schedule: Q04DX003 (ip), vehicle: Klucel (hydroxypropylcellulose) (HPC)
[4] = dose: 400.0 mg/kg/injection, schedule: Q04DX003 (ip), vehicle: Klucel (hydroxypropylcellulose) (HPC)
[5] = dose: 100.0 mg/kg/injection, schedule: Q01DX009 (ip), vehicle: Klucel (hydroxypropylcellulose) (HPC)
[6] = dose: 100.0 mg/kg/injection, schedule: Q04DX003 (ip), vehicle: saline
[7] = dose: 200.0 mg/kg/injection, schedule: Q01DX009 (ip), vehicle: Klucel (hydroxypropylcellulose) (HPC)

Q: Which results are given for `COc1cc2c(cc1OC)/C(=C\C#N)NCC2`?
A: T/C [1]: 98 % of control; T/C (dose: 200.0 mg/kg/injection, schedule: Q01DX001 (ip), vehicle: saline): 98 % of control; T/C (dose: 400.0 mg/kg/injection, schedule: Q01DX001 (ip), vehicle: saline): 100 % of control

Q: `NC(=O)/C(=C\c1ccc([N+](=O)[O-])o1)c1ccco1` was tested. Which T/C (dose: 55.0 mg/kg/injection, schedule: Q01DX Z (ip), vehicle: methylcellulose (MC)) did it give?
A: 93 % of control

Q: And the T/C (dose: 83.0 mg/kg/injection, schedule: Q01DX Z (ip), vehicle: methylcellulose (MC))?
A: 98 % of control

Q: And the T/C (dose: 125.0 mg/kg/injection, schedule: Q01DX Z (ip), vehicle: methylcellulose (MC))?
A: 100 % of control

Q: For `OCCc1c[nH]c2ccccc12`, which T/C [2] is on record?
A: 97 % of control

Q: What about the T/C [3] of the same compound?
A: 94 % of control

Q: And the T/C [4]?
A: 97 % of control

Q: How did the T/C (dose: 25.0 mg/kg/injection, schedule: Q04DX003 (ip), vehicle: Klucel (hydroxypropylcellulose) (HPC)) turn out when `N#CCCCOc1ccc(Cl)cc1` was run?
A: 104 % of control

Q: What about the T/C (dose: 50.0 mg/kg/injection, schedule: Q04DX003 (ip), vehicle: Klucel (hydroxypropylcellulose) (HPC)) of the same compound?
A: 104 % of control

Q: And the T/C [2]?
A: 98 % of control

Q: For `Cn1c(=O)cc[nH]c1=O`, which T/C (dose: 100.0 mg/kg/injection, schedule: Q01DX001 (ip), vehicle: saline with Tween-80) is on record?
A: 95 % of control

Q: And the T/C (dose: 200.0 mg/kg/injection, schedule: Q01DX001 (ip), vehicle: saline with Tween-80)?
A: 98 % of control

Q: And the T/C (dose: 400.0 mg/kg/injection, schedule: Q01DX001 (ip), vehicle: saline with Tween-80)?
A: 106 % of control

Q: `O=c1cc(CO)[nH]cc1O` was tested. Which T/C (dose: 25.0 mg/kg/injection, schedule: Q01DX Z (ip), vehicle: methylcellulose (MC)) did it give?
A: 102 % of control

Q: What about the T/C (dose: 50.0 mg/kg/injection, schedule: Q01DX015 (ip), vehicle: carboxymethylcellulose (CMC)) of the same compound?
A: 103 % of control

Q: And the T/C (dose: 50.0 mg/kg/injection, schedule: Q01DX Z (ip), vehicle: methylcellulose (MC))?
A: 96 % of control

Q: What about the T/C (dose: 62.5 mg/kg/injection, schedule: Q01DX015 (ip), vehicle: saline) of the same compound?
A: 115 % of control

Q: What about the T/C (dose: 78.0 mg/kg/injection, schedule: Q01DX Z (ip), vehicle: carboxymethylcellulose (CMC)) of the same compound?
A: 98 % of control and 112 % of control

Q: And the T/C (dose: 78.0 mg/kg/injection, schedule: Q01DX Z (ip), vehicle: saline)?
A: 96 % of control and 114 % of control

Q: What about the T/C (dose: 100.0 mg/kg/injection, schedule: Q01DX001 (ip), vehicle: Klucel (hydroxypropylcellulose) (HPC)) of the same compound?
A: 106 % of control

Q: And the T/C [5]?
A: 110 % of control and 121 % of control

Q: And the T/C (dose: 100.0 mg/kg/injection, schedule: Q01DX009 (ip), vehicle: saline)?
A: 121 % of control

Q: What about the T/C (dose: 100.0 mg/kg/injection, schedule: Q01DX015 (ip), vehicle: carboxymethylcellulose (CMC)) of the same compound?
A: 108 % of control

Q: What about the T/C (dose: 100.0 mg/kg/injection, schedule: Q01DX Z (ip), vehicle: methylcellulose (MC)) of the same compound?
A: 101 % of control

Q: What about the T/C [2] of the same compound?
A: 110 % of control

Q: What about the T/C [6] of the same compound?
A: 106 % of control

Q: And the T/C (dose: 117.0 mg/kg/injection, schedule: Q01DX Z (ip), vehicle: carboxymethylcellulose (CMC))?
A: 104 % of control and 121 % of control

Q: And the T/C (dose: 117.0 mg/kg/injection, schedule: Q01DX Z (ip), vehicle: methylcellulose (MC))?
A: 110 % of control

Q: And the T/C (dose: 117.0 mg/kg/injection, schedule: Q01DX Z (ip), vehicle: saline)?
A: 110 % of control and 120 % of control

Q: What about the T/C (dose: 125.0 mg/kg/injection, schedule: Q01DX001 (ip), vehicle: carboxymethylcellulose (CMC)) of the same compound?
A: 104 % of control and 106 % of control

Q: And the T/C (dose: 125.0 mg/kg/injection, schedule: Q01DX015 (ip), vehicle: saline)?
A: 113 % of control

Q: What about the T/C (dose: 125.0 mg/kg/injection, schedule: Q## X001 (ip), vehicle: carboxymethylcellulose (CMC)) of the same compound?
A: 100 % of control

Q: What about the T/C (dose: 175.0 mg/kg/injection, schedule: Q01DX Z (ip), vehicle: carboxymethylcellulose (CMC)) of the same compound?
A: 109 % of control

Q: What about the T/C (dose: 175.0 mg/kg/injection, schedule: Q01DX Z (ip), vehicle: methylcellulose (MC)) of the same compound?
A: 96 % of control

Q: And the T/C (dose: 175.0 mg/kg/injection, schedule: Q01DX Z (ip), vehicle: saline)?
A: 113 % of control

Q: What about the T/C (dose: 177.0 mg/kg/injection, schedule: Q01DX009 (ip), vehicle: Klucel (hydroxypropylcellulose) (HPC)) of the same compound?
A: 121 % of control

Q: What about the T/C (dose: 200.0 mg/kg/injection, schedule: Q01DX001 (ip), vehicle: Klucel (hydroxypropylcellulose) (HPC)) of the same compound?
A: 110 % of control

Q: What about the T/C [7] of the same compound?
A: 151 % of control

Q: And the T/C [3]?
A: 122 % of control

Q: What about the T/C (dose: 200.0 mg/kg/injection, schedule: Q04DX003 (ip), vehicle: saline) of the same compound?
A: 115 % of control

Q: And the T/C (dose: 250.0 mg/kg/injection, schedule: Q01DX001 (ip), vehicle: carboxymethylcellulose (CMC))?
A: 97 % of control and 101 % of control

Q: And the T/C (dose: 250.0 mg/kg/injection, schedule: Q01DX015 (ip), vehicle: saline)?
A: 159 % of control

Q: And the T/C (dose: 250.0 mg/kg/injection, schedule: Q## X001 (ip), vehicle: carboxymethylcellulose (CMC))?
A: 106 % of control

Q: What about the T/C (dose: 263.0 mg/kg/injection, schedule: Q01DX Z (ip), vehicle: carboxymethylcellulose (CMC)) of the same compound?
A: 124 % of control

Q: And the T/C (dose: 263.0 mg/kg/injection, schedule: Q01DX Z (ip), vehicle: methylcellulose (MC))?
A: 110 % of control

Q: And the T/C (dose: 264.0 mg/kg/injection, schedule: Q01DX008 (ip), vehicle: saline)?
A: 106 % of control

Q: What about the T/C (dose: 264.0 mg/kg/injection, schedule: Q01DX009 (ip), vehicle: saline) of the same compound?
A: 101 % of control

Q: And the T/C (dose: 393.0 mg/kg/injection, schedule: Q01DX Z (ip), vehicle: methylcellulose (MC))?
A: 116 % of control

Q: What about the T/C (dose: 400.0 mg/kg/injection, schedule: Q01DX001 (ip), vehicle: Klucel (hydroxypropylcellulose) (HPC)) of the same compound?
A: 112 % of control

Q: What about the T/C (dose: 400.0 mg/kg/injection, schedule: Q01DX008 (ip), vehicle: saline) of the same compound?
A: 116 % of control

Q: What about the T/C (dose: 400.0 mg/kg/injection, schedule: Q01DX009 (ip), vehicle: Klucel (hydroxypropylcellulose) (HPC)) of the same compound?
A: 156 % of control

Q: And the T/C [4]?
A: 122 % of control

Q: What about the T/C (dose: 400.0 mg/kg/injection, schedule: Q04DX003 (ip), vehicle: saline) of the same compound?
A: 112 % of control

Q: What about the T/C (dose: 500.0 mg/kg/injection, schedule: Q01DX001 (ip), vehicle: carboxymethylcellulose (CMC)) of the same compound?
A: 95 % of control and 111 % of control

Q: And the T/C (dose: 500.0 mg/kg/injection, schedule: Q01DX015 (ip), vehicle: saline)?
A: 165 % of control

Q: What about the T/C (dose: 500.0 mg/kg/injection, schedule: Q01DX Z (ip), vehicle: methylcellulose (MC)) of the same compound?
A: 106 % of control

Q: And the T/C (dose: 500.0 mg/kg/injection, schedule: Q## X001 (ip), vehicle: carboxymethylcellulose (CMC))?
A: 101 % of control

Q: What about the T/C (dose: 590.0 mg/kg/injection, schedule: Q01DX Z (ip), vehicle: carboxymethylcellulose (CMC)) of the same compound?
A: 105 % of control

Q: What about the T/C (dose: 625.0 mg/kg/injection, schedule: Q01DX Z (ip), vehicle: methylcellulose (MC)) of the same compound?
A: 108 % of control

Q: And the T/C (dose: 750.0 mg/kg/injection, schedule: Q01DX Z (ip), vehicle: methylcellulose (MC))?
A: 120 % of control

Q: And the T/C (dose: 1000.0 mg/kg/injection, schedule: Q01DX001 (ip), vehicle: carboxymethylcellulose (CMC))?
A: 102 % of control and 105 % of control

Q: What about the T/C (dose: 1000.0 mg/kg/injection, schedule: Q## X001 (ip), vehicle: carboxymethylcellulose (CMC)) of the same compound?
A: 108 % of control

Q: Which results are given for `C=C(C)C(=O)O[C@@H]1C[C@@]2(C)O[C@@H]2C[C@H](O)/C(C)=C/[C@H]2OC(=O)C(=C)[C@@H]21`?
A: T/C (dose: 25.0 mg/kg/injection, schedule: Q01DX001 (ip), vehicle: saline): 91 % of control; T/C (dose: 50.0 mg/kg/injection, schedule: Q01DX001 (ip), vehicle: saline): 96 % of control; T/C [1]: 112 % of control

Q: What does the source list for `O=C(O)C1C(C(=O)O)C2(Cl)C(Cl)=C(Cl)C1(Cl)C2(Cl)Cl.[Fe]` (centres undefined)?
A: T/C (dose: 25.0 mg/kg/injection, schedule: Q01DX009 (ip), vehicle: saline sonified): 93 % of control; T/C (dose: 25.0 mg/kg/injection, schedule: Q04DX003 (ip), vehicle: saline): 94 % of control; T/C (dose: 44.0 mg/kg/injection, schedule: Q01DX Z (ip), vehicle: carboxymethylcellulose (CMC)): 92 % of control; T/C (dose: 50.0 mg/kg/injection, schedule: Q01DX001 (ip), vehicle: saline sonified): 104 % of control; T/C (dose: 50.0 mg/kg/injection, schedule: Q01DX009 (ip), vehicle: saline sonified): 93 % of control; T/C (dose: 50.0 mg/kg/injection, schedule: Q04DX003 (ip), vehicle: saline): 95 % of control and 86 % of control; T/C (dose: 67.0 mg/kg/injection, schedule: Q01DX Z (ip), vehicle: carboxymethylcellulose (CMC)): 91 % of control; T/C (dose: 100.0 mg/kg/injection, schedule: Q01DX001 (ip), vehicle: saline sonified): 102 % of control; T/C (dose: 100.0 mg/kg/injection, schedule: Q01DX009 (ip), vehicle: saline sonified): 93 % of control; T/C [6]: 103 % of control; T/C (dose: 200.0 mg/kg/injection, schedule: Q01DX001 (ip), vehicle: saline sonified): 98 % of control

Q: For `CC(=O)Nc1cc(C(=O)Nc2cccc(C3=NCCN3)c2)ccc1C(=O)Nc1cccc(C2=NCCN2)c1`, which T/C (dose: 1.3 mg/kg/injection, schedule: Q01DX Z (ip), vehicle: methylcellulose (MC)) is on record?
A: 96 % of control

Q: Which results are given for `CC1=N/C(=C/c2ccccc2Cl)C(=O)O1`?
A: T/C (dose: 50.0 mg/kg/injection, schedule: Q01DX009 (ip), vehicle: Klucel (hydroxypropylcellulose) (HPC)): 93 % of control; T/C [5]: 90 % of control; T/C [2]: 95 % of control; T/C [7]: 93 % of control; T/C [3]: 98 % of control
